According to patent US11344601B2, “Tumor microenvironment-related target TAK1 and application thereof in inhibition of tumor” (Shanghai Institutes for Biological Sciences, Chinese …, priority 2017, dated 2022):

Key:
[1] = system: prostate-derived stromal cell line PSC27 and epithelial cancer cell line PC3 xenograft tumors; experiment: Preclinical chemotherapy trial, subcutaneous PC3/PSC27 tissue-recombinant tumors, terminal tumor volume; type: in vivo, ICR-SCID mice
Description: All experimental mouse experiments were carried out in strict accordance with the relevant regulations of the Institutional animal care and use committee (IACUC) of the shanghai Institute of Life Sciences of the Chinese Academy of Sciences. ICR-SCID mice at an age of about 6 weeks (about 25 g in body weight) were used in this patent-related animal experiment. Stromal cells PSC27 and epithelial cells were mixed at a ratio of 1:4, with each implant containing 1.25×10^6 cells for tissue recombination. The transplant tumor was implanted into mice subcutaneously, and the animals were euthanized at the end of Week 8 after transplantation. The tumor volume was calculated according to the following formula: V=(π/6)×((l+w)/2)^3 (V, volume; l, length; w, width). Similarly, lung and breast cancer xenograft tumors were formed by tissue recombination with A549 (non-small cell lung cancer cell line) and W138 (lung fibroblast line), MDA-MB-231 (triple negative breast cancer cell line) and HBF1203 (breast fibroblast line), respectively.
(§1) In the preclinical chemotherapy trial, mice subcutaneously transplanted with tumors were fed standard experimental diet. After 2 weeks, the chemotherapeutics mitoxantrone (dose of 0.2 mg/kg) and/or SASP inhibitors (500 μl, dose of 10 mg/kg, RAD001, SB203580 and 5Z-7 were purchased from Tocris; LYTAK, purchased from Lilly Co ((Indianapolis, Ind.), 5 mg/kg) were administrated intraperitoneally. The timepoint was the first day of Week 3, 5, 7, and the whole course of treatment was composed of three cycles of administration, each cycle lasted for 2 weeks. After the course of treatment, mouse […] was collected for tumor measurement and histological analysis. Each mouse received cumulatively 0.6 mg mitoxantrone/kg body weight and 30 mg SASP inhibitor/kg body (15 mg/kg body weight for LYTAK1). Mice xenografted with lung cancer and breast cancer tumor received bleomycin (totally 0.3 mg/kg) and doxorubicin (totally 0.2 mg/kg), respectively. The timepoints and frequency were same as the administration of mitoxantrone. The chemotherapeutic trial was performed until the end of Week 8, and the mice were dissected immediately after death. The transplant tumors were collected and used for analysis in a pathological system.
In order to simulate clinical conditions as much as possible, the present inventor inoculated the subcutaneous site of immunodeficient mice with an admixture of prostate-derived stromal cell line PSC27 and epithelial cancer cell line PC3. The mice subsequently underwent a regimen of 8-week preclinical chemotherapy, which included three single- or double-drug treatments based on a series of pre-experimental data (FIGS. 64 and 65). In the absence of stromal cells, PC3 cells were still able to form tumors under screening pressure caused by chemotherapeutics, though their volumes were smaller than that generated in the case of concurrent inoculation of stromal cells and cancer cells. Such difference also objectively confirmed the tumor-promoting effect of the microenvironment (FIG. 66).

[2] = system: PC3/PSC27 xenograft tumors; experiment: Time-extended preclinical treatment, survival of PC3/PSC27 tumor-bearing mice; type: in vivo
Description: as §1, with “Mice xenografted with lung cancer and breast cancer tumor received bleomycin (totally 0.3 mg/kg) and doxorubicin (totally 0.2 mg/kg), respectively. The timepoints and frequency were same as the administration of mitoxantrone. The chemotherapeutic trial was performed until the end of Week 8, and the mice were dissected immediately after death. The transplant tumors were collected and used for analysis in a pathological system.” left out
Although there was no ectopic metastasis of cancer cells, the current inventor questions whether the microenvironment causes other pathological consequences other than tumor growth and drug resistance. To this end, the present inventor evaluated the survival of multiple groups of animals under a batch of time-extended preclinical treatment conditions to determine the objective results of tumor progression. All animals were monitored for tumor volume and recognized as severe disease when the tumor volume reached a certain upper limit (size 2000 mm^3).

[3] = system: NF-κB complex; experiment: NF-κB activation in bleomycin-treated stromal cells (nuclear translocation, luciferase reporter); type: cell-based, human
Description: FIG. 22. The stromal cells pre-transduced with the NF-κB transcriptional luciferase reporter vector were treated with bleomycin and/or RAD001. The cells were collected on Day 7 and detected for the fluorescence signal intensity of the reporter vector.
FIG. 32. Detection of NF-kB transcriptional activity based on the reporter vector. Stromal cells were treated with bleomycin along with the PI3K small molecule inhibitor LY294002 (1 μM), Akt inhibitor MK-2206 (100 nM), mTOR inhibitor RAD001 (50 nM), p38 inhibitor SB203580 (10 μM) and TAK1 inhibitor 5Z-7 (500 nM), respectively, and cell lysates were used for determining luciferase activity.
The […] vector pBABE-puro-IκBα-mut (Super repressor) containing two phosphorylated mutant sites of IKK at S32A and S34A on the IκBα protein encoding sequence were used for transfection of lentivirus-packing cell line phoenix. Lentiviruses were subsequently used to infect PSC27 stromal cell line, whereas 1 μg/ml puromycin was used to screen positive clones. As another method, 5 μm of the small molecule inhibitor Bay11-7082 (purchased from Selleck) was used for NF-κB activity control. Stromal cells were subsequently exposed to several different forms of cytotoxicity, with the resulting phenotype recorded in time, and the relevant gene expression analyzed. The resulted conditioned culture medium produced from cells processed in this way was collected for various detection of epithelial cells.
Even so, is TAK1 activated indirectly by upstream DDR signaling associated with activation of a core transcription factor, NF-κB complex involved in the broad-spectrum expression of the SASP? The NF-κB complex was previously reported to be mediated by mono-ubiquitination of IκB kinase subunit γ (IKKγ) in cytoplasm. After isolating nucleus from cytoplasmic proteins using a kit, the inventor finds that TAK1 phosphorylation is associated with nuclear translocation of p50 and p65, the two main subunits of NF-κB complex (FIG. 4).

[4] = system: IL-8; experiment: IL-8 protein expression of damaged stromal cells (Western blot, ELISA); type: cell-based, human
Description: FIG. 15. The stromal cells were collected on Day 7 after bleomycin and/or 5Z-7 treatment. The lysates were analyzed by Western blot for their phosphorylation levels of ATM and TAK1, and activation of TAK1 downstream substrate JN K and p38. IL-8, a chemokine was used as a marker secreted factor of SASP, whose expression level was simultaneously analyzed. FIG. 33. The extracellular fluid released by each group of cells were tested by ELISA to determine the protein expression level of the secreted factor IL-8.

[5] = system: p38MAPK, JNK, ATM; experiment: Western blot of JNK, p38MAPK and ATM phosphorylation in damaged stromal cells; type: cell-based, human; details: Day 7 after bleomycin and/or 5Z-7
Description: The nitrocellulose filter membrane was blocked at room temperature for 1 h in the blocking solution (TBST containing 5% skim milk powder (0.1% Tween-20 in TBS)), incubated overnight at 4° C. in a primary antibody solution, rinsed at TBST room temperature for 3 times, each for 2 min. The corresponding secondary antibody conjugated with HRP prepared with the blocking solution was added, the filter membrane was incubated at room temperature for 0.5 h. The filter membrane was rinsed with PBST at room temperature for 3 times, each for 2 min.

COc1cc(O)c2c(c1)/C=C/C[C@H](O)[C@H](O)C(=O)/C=C\C[C@H](C)OC2=O [5Z-7, 5z-7-oxozeaenol]
effect on tumor growth ([1]; TAK1 inhibitor alone): does not appear to alter tumor growth trends
further decrease in terminal tumor volume ([1]; inhibitor combined with mitoxantrone (MIT) vs mitoxantrone alone (group 8 vs group 6), end of Week 8): 60%
survival of mice ([2]; 5Z-7 alone): only slightly prolonged
prolongation of disease-free survival ([2]; MIT/5Z-7 combination vs mitoxantrone alone, severe disease at tumor size 2000 mm^3): about 50%
NF-κB transcriptional activity (reporter vector) ([3]; bleomycin plus inhibitor, luciferase reporter): significantly reduced
phosphorylation of TAK1 and nuclear translocation of p50/p65 ([3]; bleomycin-treated stromal cells, cytosolic and nuclear proteins): significantly inhibited
inhibitory effect on NF-κB activation and IL-8 compared with the other inhibitors ([3]; vs LY294002, MK-2206, SB203580): stronger inhibitory effect
chemokine IL-8 protein levels induced by DNA damage ([4]; ELISA of extracellular fluid, bleomycin plus inhibitor): significantly reduced
protein expression level of IL-8 ([4]; Western blot, Day 7 after bleomycin and/or 5Z-7): significantly downregulated
phosphorylation of JNK and p38MAPK [5]: decreased significantly
phosphorylation status of ATM stimulated by DNA damage [5]: does not depend on whether TAK1 activity is inhibited
